In patent US7084117B2, “Pharmaceutical compositions which inhibit vascular proliferation and method of use thereof” (Societe de Conseils de Recherches et d'Applications …, priority 2001, dated 2006):

Experiments:
[1] = test system: immortalized human microvascular endothelial HMEC-1 cells; assay: Cytotoxicity assay (cell proliferation); assay type: cell-based; settings: 10^−6 M (+VEGF 10 ng/mL), 72 hours
Description: The immortalized human microvascular endothelial cell line HMEC-1, characterized by Ades, et al., (Journal of Investigative Dermatology 1992, 99: 683–690), was maintained in Medium 199, supplemented with 10% heat-inactivated fetal bovine serum (FBS), penicillin (50 IU/mL) and hydrocortisone (100 μg/mL). Cells were routinely grown in 75 cm2 gelatin-coated tissue culture flasks and kept in a humidified atmosphere of 5% CO2 at 37° C. Cells were harvested with a solution of 0.25% trypsin-0.03% EDTA when they were in long phase of growth and maintained at the above-described culture conditions for all experiments.
In vitro chemosensitivity testing was performed on single-cell suspensions of HEMC-1 cells (5×10^3 cells/well) plated in 96-well gelatin-coated sterile plastic plates and allowed to attach overnight. […] The treatments were scheduled so that each peptide was represented by at least nine wells. At the end of the experiment, cells were rinsed with phosphate buffered saline (PBS), harvested with trypsin/EDTA, and counted with an hemocytometer. Results are expressed as the percentage of cell proliferation versus controls and are the mean of three separate experiments±S.E repeated thrice.

[2] = test system: human placental vessel explants (capillaries sprouts); assay: In vitro cultures of human placental vessels, sprouting index by image analysis; assay type: cell-based; settings: 10^−6 M, treated every two days for 28 days
Description: The experimental procedure described by Brown et al., (Laboratory Investigation 1996, 75: 539–555) was followed and modified in the present study. Immediately after the spontaneous delivery, the placenta was collected in sterile conditions and superficial blood vessels, approximately […] in diameter and from 1 to 5 cm in length, were excised. Vessel explants were placed in phosphate buffered saline (PBS) solution containing […] of amphotericin B and 50 μg/mL of gentamycin and were cut into approximately 1-mm fragments. […]
The image analysis procedures described by Bocci et al., (Cancer Chemotherapy Pharmacology 1999, 43: 205–212), were adopted for the present study. […] The true color image analysis software package KS 300 v.1.2 (Kontron Elektronik GmbH, Eching, Germany) was run for interactive manipulation, quantification of the images and data collection. […] In the fibrin culture of placental vessel explants the mean gray level of the sprouting area was measured and the sprouting index (SI) was defined as: Sprouting index=((sprouting area/mean gray level of sprouting area)/perimeter of explant)×100. Results are expressed as the percentage of sprouting index+/−S.E. versus controls.

**Q.** Which results are given for `Cc1cc(C)c(/C=C2\C(=O)Nc3ccccc32)[nH]1` [SU5416, 3-((2,4-dimethylpyrrol-5-yl)methylidenyl)-2-indolinone]?
**A.** cell growth block [1]: 56.2%; sprouting index (SI) as compared to untreated controls [2]: 32.92±9.7%
